Measured values from patent US20210147455A1 (SHAANXI SYNTHETIC PHARMACEUTICAL CO., LTD., priority 2018, published 2021).
“And” between values parts separate entries of the source, which are not always exact repeats. Equal entries are not always repeated.

Tests used:
[1] = Stability experiments under 40° C.±2° C. and 75% R.H±5% R.H (accelerated test); format: physicochemical; settings: 40° C./75% R.H
[2] = Stability experiments under 25° C.±2° C. and 65% R.H±5% R.H; settings: 25° C./65% R.H
Excerpt: • 1. […] The results are shown in detail in the following table.

[3] = Hygroscopicity study (Chinese Pharmacopoeia 2015, 9103); format: physicochemical; settings: for Hygroscopic weight gain: 25° C.±1° C., saturated ammonium chloride solution, 24 hours; for Conclusion (hygroscopicity): after 24 hours
Procedure: Test method: • 1. A dried glass weighing bottle with stopper (having an outer diameter of 50 mm and a height of 15 mm) was placed in a thermostatic drier (a saturated ammonium chloride solution was placed on the lower part of the thermostatic drier) at an appropriate temperature of 25° C.±1° C. on the day earlier before the test, and the weight (m1) of weighing bottle was precisely weighed. • 2. An appropriate amount of test sample was taken and spread in the weighing bottle, and the thickness of the test sample was controlled to about 1 mm, and the weight (m2) was precisely weighed. • 3. The weighing bottle was opened and was placed, together with the bottle cap, under the above mentioned constant temperature and humidity condition for 24 hours. • 4. The weighing bottle was capped and precisely weighed to obtain the weight (m3).
Description of hygroscopicity characterization and delimitation of hygroscopicity weight gain: Deliquescence: enough moisture is absorbed to form a liquid. […] Slightly hygroscopic: hygroscopic weight gain is less than 2% but not less than 0.2%. Not or hardly hygroscopic: hygroscopic weight gain is less than 0.2%.

[4] = month 3, Phosphate Monopotassium Salt
[5] = month 6, Phosphate Monopotassium Salt
[6] = month 9, Phosphate Monopotassium Salt
[7] = month 12, Phosphate Monopotassium Salt
[8] = month 24, Phosphate Monopotassium Salt

Row | Molecule | Content ([1]; month 0) | Description ([1]; month 0) | Related substance ([1]; month 0) | Content ([1]; month 1) | Description ([1]; month 1) | Related substance ([1]; month 1) | Content ([1]; month 2) | Description ([1]; month 2) | Related substance ([1]; month 2) | Content ([1]; month 3) | Description ([1]; month 3) | Related substance ([1]; month 3) | Content ([1]; month 6) | Description ([1]; month 6) | Related substance ([1]; month 6) | Content ([2]; month 0) | Description ([2]; month 0) | Related substance ([2]; month 0) | Description ([2]; month 3) | Description ([2]; month 6) | other results
1 | Posaconazole Phosphate Monopotassium Salt [Comparative Example 3] | 99.87% | White | 0.13% | 99.75% | White | 0.25% | 99.64% | White | 0.36% | 99.51% | White | 0.49% | 99.38% | White | 0.62% | 99.87% | White | 0.13% | White | White | Content [2, 4]: 99.73% and 99.80%; Related substance [2, 4]: 0.27% and 0.20%; Content [2, 5]: 99.67% and 99.68%; Related substance [2, 5]: 0.37% and 0.32%; Description ([2]; month 9): White; Content [2, 6]: 99.55% and 99.59%; Related substance [2, 6]: 0.45% and 0.41%; Description ([2]; month 12): White; Content [2, 7]: 99.41% and 99.48%; Related substance [2, 7]: 0.59% and 0.52%; Description ([2]; month 24): White; Content [2, 8]: 98.88% and 99.03%; Related substance [2, 8]: 1.12% and 0.97%; Hygroscopic weight gain [3]: 1.56%; Conclusion (hygroscopicity) [3]: Slight hygroscopicity
2 | Posaconazole Phosphate Disodium Salt [Comparative Example 10] | 99.87% | White | 0.13% | 99.72% | White | 0.28% | 99.60% | White | 0.40% | 99.45% | White | 0.55% | 99.34% | White | 0.66% | 99.87% | White | 0.13% | White | White | Content ([2]; month 3): 99.72%; Related substance ([2]; month 3): 0.28%; Content ([2]; month 6): 99.62%; Related substance ([2]; month 6): 0.38%; Content ([2]; month 9): 99.57%; Description ([2]; month 9): White; Related substance ([2]; month 9): 0.43%; Content ([2]; month 12): 99.40%; Description ([2]; month 12): White; Related substance ([2]; month 12): 0.60%; Content ([2]; month 24): 98.84%; Description ([2]; month 24): White; Related substance ([2]; month 24): 1.16%; Hygroscopic weight gain [3]: 13.91%
3 | Posaconazole Phosphate Monosodium Salt Trihydrate [Comparative Example 7] | 99.87% | White | 0.13% | 99.77% | White | 0.23% | 99.63% | White | 0.37% | 99.50% | White | 0.50% | 99.37% | White | 0.63% | 99.87% | White | 0.18% | White | White | Content ([2]; month 3): 99.78%; Related substance ([2]; month 3): 0.22%; Content ([2]; month 6): 99.71%; Related substance ([2]; month 6): 0.29%; Content ([2]; month 9): 99.61%; Description ([2]; month 9): White; Related substance ([2]; month 9): 0.39%; Content ([2]; month 12): 99.51%; Description ([2]; month 12): White; Related substance ([2]; month 12): 0.49%; Content ([2]; month 24): 98.98%; Description ([2]; month 24): White; Related substance ([2]; month 24): 1.02%; Hygroscopic weight gain [3]: 1.86%; Conclusion (hygroscopicity) [3]: Slight hygroscopicity
4 | CC[C@@H]([C@H](C)OP(=O)(O)O)n1ncn(-c2ccc(N3CCN(c4ccc(OC[C@@H]5CO[C@@](Cn6cncn6)(c6ccc(F)cc6F)C5)cc4)CC3)cc2)c1=O.N=C(N)NCCC[C@H](N)C(=O)O [Comparative Example 5, Posaconazole Phosphate Monoarginine Salt] | 99.87% | White | 0.13% | 99.72% | White | 0.28% | 99.60% | White | 0.40% | 99.50% | White | 0.50% | 99.37% | White | 0.63% | 99.87% | White | 0.13% | White | White | Content ([2]; month 3): 99.79%; Related substance ([2]; month 3): 0.21%; Content ([2]; month 6): 99.71%; Related substance ([2]; month 6): 0.29%; Content ([2]; month 9): 99.58%; Description ([2]; month 9): White; Related substance ([2]; month 9): 0.42%; Content ([2]; month 12): 99.49%; Description ([2]; month 12): White; Related substance ([2]; month 12): 0.51%; Content ([2]; month 24): 99.03%; Description ([2]; month 24): White; Related substance ([2]; month 24): 0.97%; Hygroscopic weight gain [3]: 1.02%; Conclusion (hygroscopicity) [3]: Slight hygroscopicity
